Laboratory results: patent US20030181376A1, “Control of crop pests & animal parasites through direct neuronal uptake” (priority 2000, published 2003)
Read-outs that look alike come from different tables or passages of the source.

What was measured:
Type in all cases: in vivo
[1] = tested on: Heterodera glycines; assay: Behavioural bioassay: orientation of H. glycines juveniles to an attractant disc (root exudate) after pre-incubation; details: for EC50: read-out: concentration giving 50% reduction in attraction of H. glycines to an attractant
Method: This assay was modified from that used by Grundler et al (Parasitology 103, 149-155; 1991). Soybean plants were grown in pots containing perlite in a tropical glasshouse until the root system was well established. Plants were carefully washed free of the perlite in running water and then several plants were placed in 200 cm3 dH2O in a conical flask which was covered in foil to keep light off the roots and then incubated in a Sanyo plant growth cabinet (16 hr light 24° C., 8 hr dark 20° C.) for 48hrs. The root exudate was collected and filter sterilised through 0.45 μm syringe filter.
Agarose discs covered in either dH2O or root exudate were made as follows. Agarose (3 ml, 1.5% solution made in dH2O) was poured into 6 cm petri dishes and allowed to surface dry. One ml of root exudate or dH2O was pipetted onto the plates, the surface covered by swirling and then left to completely evaporate. A cork borer was used to cut out 6 mm discs from the plate.
The oxime carbamate nematicide Aldicarb was obtained by putting 1 g Temik (10G, Rhône-Poulenc), in 10 ml chloroform to dissociate the oxime carbamate from its inert carrier. After 1 hour particulate material was removed by centrifugation. 100, 10 or 1 μl aliquots of the chloroform/aldicarb solution were pipetted into 1.5 ml microtubes and left to evaporate in a fume hood. This leaves 1, 0.1 and 0.01 mg aldicarb respectively in each tube. Addition of 1 ml dH2O to these tubes provides solutions of […] respectively.
Aliquots of juveniles of H. glycines were incubated for 16 hours in a range of concentrations of aldicarb, or in peptides generated that recognise the same acetylcholinesterase (AChE) target as aldicarb (see example IV). The effect of different concentrations of aldicarb or peptides on chemoreception was measured. Control worms were incubated in either water or PBS for the peptide experiments.
Treated nematode juveniles (approximately 300) in small volumes (typically 20 μl) dH2O were placed in the centre of 3.5 cm diameter petri dishes containing 1.5 ml 1.5% agarose. After evaporation of the water the worms were left for 1 hour to randomly distribute over the plate. A root exudate and a water agarose test disc were placed onto the plate equally spaced (5 mm) from the centre. The plates were left for 1 hour at room temperature in the dark. The experiments were carried out in replicates of 8-10 per concentration of aldicarb or peptide assayed. Controls in which nematodes were not treated with any chemical or peptide mimetic were also used for each experimental day to obtain a 100% rate of attraction. This allowed measurements of the extent of chemoattraction mediated by a test compound on any day.
The number of worms under each disc was counted using a dissecting microscope. In control experiments typically 2-4 times as many worms were counted under the root exudate disc as were under the water control disc. The numbers of responders minus the number under the control disc was used to calculate a response. With ˜300 animals on the plate the difference was around 40-80. The difference between the numbers under the attractant and the control discs was used to define the maximum response on that day of experiments.
Various concentrations of these compounds were tested with a modified bioassay. The data sets were analysed using probit analysis within a standard statistical package (SPSS) installed on a personal computer. […] Even higher concentrations of aldicarb and both AChE binding peptides were needed to inhibit movement than required to disrupt chemoreception.
Freshly hatched H. glycines were incubated for 16 hours at room temperature in various concentrations of Levamisole. They were tested using the bioassay in example 3.

[2] = tested on: Globodera pallida; assay: Behavioural bioassay: orientation of G. pallida to an attractant disc (50 mM ZnCl2) after pre-incubation; details: 16 h pre-treatment at 1.242×10^−8 M
Method: (§1) The number of worms under each disc was counted using a dissecting microscope. […] The numbers of responders minus the number under the control disc was used to calculate a response. […] The difference between the numbers under the attractant and the control discs was used to define the maximum response on that day of experiments.
(§2) 50 mM CaCl2 was used as an attractant with the agarose discs. Those assays were carried out at 27° C. […] The peptide was also tested against the potato cyst nematode Globodera pallida using the same methods as described for H. glycines. G. pallida was incubated for 16 h in a solution containing the constrained peptide at 1.242×10^−8 M at room temperature. […]

[3] = tested on: Heterodera glycines and Globodera pallida; assay: Behavioural bioassay, pooled data of H. glycines and G. pallida after pre-incubation in levamisole mimetic peptide; details: 16 h pre-treatment at 1×10^−6 M; data of two species pooled; values>1 indicate a chemoreceptive response
Method: as §1, §2

[4] = incubation for 16 hours, probit analysis

c1ccc([C@H]2CN3CCSC3=N2)cc1 [Levamisole]
signs of paralysis ([1]; 16 hours at room temperature in various concentrations): did not show any signs of paralysis | inhibition of chemoreception ([1]; 16 hours at room temperature in various low concentrations, FIG. 5): inhibit chemoreception in a dose-dependent manner

CNC(=O)O/N=C/C(C)(C)SC [aldicarb, Aldicarb]
disruption of chemosensory attraction relative to paralysis ([1]; H. glycines, 16 hours incubation): disrupt chemosensory attraction completely at concentrations lower than those which cause paralysis | EC50 ([1]; Heterodera glycines, 16 h): 0.0011 ± 0.00306 nM

CSINWRHHC [constrained 7 mer peptide]
EC50 [1, 4]: 2.16 nM | mean value ratio of nematodes under the disc with the attractant rather than without it ([2]; room temperature, bioassay at 20° C., 50 mM ZnCl2, values>1 indicate a chemoreceptive response): 0.77±0.08 | ratio of nematodes under attractant disc versus control disc, 3 hours after the start of the bioassay ([2]; 3 hours after start of the bioassay): 0.78±0.06

SVSVGMKPSPRP [linear 12 mer peptide]
EC50 [1, 4]: 3680 nM

CHNSHIRWC [control peptide]
loss of chemoreception ([1]; incubation at 2 μM): no loss of chemoreception

CTTMHPRLC
ratio of nematodes under attractant disc versus control disc, 3 hours after the start of the bioassay ([1]; H. glycines, 16 h pre-treatment at 1×10^−6 M, 3 hours after start of the bioassay): 1.24±0.11 | mean value ratio of nematodes under the disc with the attractant rather than without it [3]: 1.03±0.11
